Test results as given in PMC8159961, “Exploring protein hotspots by optimized fragment pharmacophores” (Nature Communications, 2021).
Entries after “also recorded” stand apart in the source; their conditions may differ. Read-outs that look alike come from different tables or passages of the source.

How the values were obtained:
human 5-HT1A receptor = target: T1, human 5-HT1A receptor (Homo sapiens, UniProt P08908); assay: GPCR radioligand binding assay, [3H]-8-OH-DPAT displacement, HEK293 membranes; details: for experimental hit status, 5-HT1: 1 = hit, 0 = no hit, tested at 10 µM, hit = 50% or stronger inhibition
T1 construct: expressed in transfected cells
T1 sequence (P08908 1-422): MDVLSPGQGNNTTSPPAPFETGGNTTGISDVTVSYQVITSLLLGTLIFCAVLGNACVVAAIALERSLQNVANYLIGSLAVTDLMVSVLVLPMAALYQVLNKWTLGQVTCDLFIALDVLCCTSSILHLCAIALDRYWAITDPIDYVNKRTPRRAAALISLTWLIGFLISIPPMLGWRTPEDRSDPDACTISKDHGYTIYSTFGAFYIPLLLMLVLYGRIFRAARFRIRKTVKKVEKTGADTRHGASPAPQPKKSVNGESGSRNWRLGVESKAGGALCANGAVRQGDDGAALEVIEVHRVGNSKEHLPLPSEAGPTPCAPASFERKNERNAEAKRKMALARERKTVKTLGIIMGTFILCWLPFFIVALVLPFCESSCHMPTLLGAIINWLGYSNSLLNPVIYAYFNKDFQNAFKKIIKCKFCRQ

human 5-HT6 receptor = target: T2, human 5-HT6 receptor (Homo sapiens, UniProt P50406); assay: GPCR radioligand binding assay, [3H]-LSD displacement, HEK293 membranes; details: for experimental hit status, 5-HT6: 1 = hit, 0 = no hit, tested at 10 µM, hit = 50% or stronger inhibition
T2 construct: expressed in transfected cells
T2 sequence (P50406 whole entry): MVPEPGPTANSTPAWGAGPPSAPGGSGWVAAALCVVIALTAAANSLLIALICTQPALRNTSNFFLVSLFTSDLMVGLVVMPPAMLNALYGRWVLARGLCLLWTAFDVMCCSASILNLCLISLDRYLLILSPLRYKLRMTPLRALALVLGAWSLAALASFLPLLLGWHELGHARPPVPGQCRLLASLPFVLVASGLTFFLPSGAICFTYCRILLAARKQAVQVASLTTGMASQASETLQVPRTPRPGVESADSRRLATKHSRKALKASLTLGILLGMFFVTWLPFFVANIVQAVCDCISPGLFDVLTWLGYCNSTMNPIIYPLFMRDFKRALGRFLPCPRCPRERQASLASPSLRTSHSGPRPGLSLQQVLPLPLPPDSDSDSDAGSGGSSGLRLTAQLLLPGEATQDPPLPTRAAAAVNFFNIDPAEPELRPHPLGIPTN

human 5-HT7b receptor = target: T3, human 5-HT7b receptor (Homo sapiens, UniProt P34969); assay: GPCR radioligand binding assay, [3H]-5-CT displacement, HEK293 membranes; details: for experimental hit status, 5-HT7: 1 = hit, 0 = no hit, tested at 10 µM, hit = 50% or stronger inhibition
T3 construct: expressed in transfected cells
T3 sequence (P34969 1-432): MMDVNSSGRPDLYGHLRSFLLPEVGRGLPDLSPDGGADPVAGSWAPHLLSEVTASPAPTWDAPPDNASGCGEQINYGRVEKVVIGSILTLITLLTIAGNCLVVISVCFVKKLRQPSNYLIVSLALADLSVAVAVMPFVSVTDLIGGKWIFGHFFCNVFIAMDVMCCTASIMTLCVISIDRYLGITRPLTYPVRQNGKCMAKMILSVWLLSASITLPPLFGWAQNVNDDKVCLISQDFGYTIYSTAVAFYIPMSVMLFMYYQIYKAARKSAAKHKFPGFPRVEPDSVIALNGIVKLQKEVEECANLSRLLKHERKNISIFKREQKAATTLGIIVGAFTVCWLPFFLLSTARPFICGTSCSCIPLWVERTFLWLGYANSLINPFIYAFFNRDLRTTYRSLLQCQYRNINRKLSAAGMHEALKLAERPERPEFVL

human thrombin = target: T4, human thrombin (Homo sapiens, UniProt P00734); assay: Protease inhibitory assay, chromogenic substrate S-2238; type: biochemical; details: 1 = hit, 0 = no hit; screening at 200 µM
T4 construct: human thrombin; purchased Sigma-Aldrich

bovine factor Xa = target: T5, bovine factor Xa (Bos taurus, UniProt P00743); assay: Protease inhibitory assay, chromogenic substrate S-2222; type: biochemical; details: 1 = hit, 0 = no hit; screening at 200 µM
T5 construct: bovine factor Xa, Chromogenix, 2 nkat/mL; purchased Chromogenix
T5 sequence (P00743 234-492 limits assumed): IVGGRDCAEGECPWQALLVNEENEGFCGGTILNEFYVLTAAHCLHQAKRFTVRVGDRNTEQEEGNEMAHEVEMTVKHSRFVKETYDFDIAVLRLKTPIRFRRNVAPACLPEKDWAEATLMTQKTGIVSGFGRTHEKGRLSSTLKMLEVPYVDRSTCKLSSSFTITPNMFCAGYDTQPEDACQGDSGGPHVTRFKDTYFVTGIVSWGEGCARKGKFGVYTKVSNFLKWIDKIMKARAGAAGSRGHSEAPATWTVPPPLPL
T5 sequence (P00743 41-180 partner limits assumed): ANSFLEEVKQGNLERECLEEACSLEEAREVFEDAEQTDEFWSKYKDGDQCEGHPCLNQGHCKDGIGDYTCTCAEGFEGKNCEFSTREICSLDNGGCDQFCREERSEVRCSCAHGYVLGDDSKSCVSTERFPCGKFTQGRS

recombinant SETD2 = target: T6, recombinant SETD2 (Homo sapiens, UniProt Q9BYW2); assay: SETD2 Chemiluminescence assay (H3K36 tri-methylation); type: biochemical; details: 1 = hit, 0 = no hit
T6 construct: purchased BPS Bioscience 52060
T6 sequence (Q9BYW2 1418-1714 limits assumed): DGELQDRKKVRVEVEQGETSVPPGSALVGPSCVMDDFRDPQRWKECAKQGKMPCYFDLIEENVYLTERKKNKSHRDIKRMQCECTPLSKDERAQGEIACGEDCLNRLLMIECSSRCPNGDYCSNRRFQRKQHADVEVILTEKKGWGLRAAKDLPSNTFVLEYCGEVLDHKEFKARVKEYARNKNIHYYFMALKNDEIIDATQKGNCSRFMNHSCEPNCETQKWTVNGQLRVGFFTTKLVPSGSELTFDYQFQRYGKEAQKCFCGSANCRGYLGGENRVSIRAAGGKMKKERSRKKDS

[1] = target: T7, SARS-CoV-2 NSP3 macrodomain (Severe acute respiratory syndrome coronavirus 2, UniProt P0DTD1); assay: NSP3 macrodomain HTRF assay, displacement of ADP-ribose-conjugated biotin peptide; type: binding
SARS-CoV-2 = assay: microbe, parasite or virus in culture; type: cell-based; details: for antiviral activity in the cellular assay (in words): infected Vero E6 cells
[2] = target: T7, SARS-CoV-2 NSP3 macrodomain; assay: X-ray fragment screening (XChem, crystal soaking); type: binding
[3] = 10 µM, read-out: 5-HT1A % Inhibition by plate position
[4] = 5-HT1A, average of exp_1 and exp_2, read-out: %inh 5-HT1A average
[5] = 5-HT1A, average, values below 0 and above 100% were set as 0 and 100, read-out: %inh 5-HT1A corrected*
[6] = 5-HT1A, replicate exp_1, read-out: %inh 5-HT1A exp_1
[7] = 5-HT1A, replicate exp_2, read-out: %inh 5-HT1A exp_2
[8] = 10 µM, read-out: 5-HT6 % Inhibition by plate position
[9] = 5-HT6, average of exp_1 and exp_2, read-out: %inh 5-HT6 average
[10] = 5-HT6, average, values below 0 and above 100% were set as 0 and 100, read-out: %inh 5-HT6 corrected*
[11] = 5-HT6, replicate exp_1, read-out: %inh 5-HT6 exp_1
[12] = 5-HT6, replicate exp_2, read-out: %inh 5-HT6 exp_2
[13] = 10 µM, read-out: 5-HT7 % Inhibition by plate position
[14] = 5-HT7, average of exp_1 and exp_2, read-out: %inh 5-HT7 average
[15] = 5-HT7, average, values below 0 and above 100% were set as 0 and 100, read-out: %inh 5-HT7 corrected*
[16] = 5-HT7, replicate exp_1, read-out: %inh 5-HT7 exp_1
[17] = 5-HT7, replicate exp_2, read-out: %inh 5-HT7 exp_2

Q: Which results are given for `c1cnc2ncccc2c1` [SX003]?
A: inhibition at 10 µM (human 5-HT1A receptor; [3]): 22%; experimental hit status, 5-HT1 (human 5-HT1A receptor): 0; inhibition at 10 µM (human 5-HT1A receptor; [4]): 22%; inhibition at 10 µM (human 5-HT1A receptor; [5]): 22%; inhibition at 10 µM (human 5-HT1A receptor; [6]): 24%; inhibition at 10 µM (human 5-HT1A receptor; [7]): 21%; inhibition at 10 µM (human 5-HT6 receptor; [8]): 48%; experimental hit status, 5-HT6 (human 5-HT6 receptor): 0; inhibition at 10 µM (human 5-HT6 receptor; [9]): 48%; inhibition at 10 µM (human 5-HT6 receptor; [10]): 48%; inhibition at 10 µM (human 5-HT6 receptor; [11]): 55%; inhibition at 10 µM (human 5-HT6 receptor; [12]): 41%; inhibition at 10 µM (human 5-HT7b receptor; [13]): 34%; experimental hit status, 5-HT7 (human 5-HT7b receptor): 0; inhibition at 10 µM (human 5-HT7b receptor; [14]): 34%; inhibition at 10 µM (human 5-HT7b receptor; [15]): 34%; inhibition at 10 µM (human 5-HT7b receptor; [16]): 32%; inhibition at 10 µM (human 5-HT7b receptor; [17]): 36%; experimental hit status, Thrombin (human thrombin): 0; experimental hit status, Factor Xa (bovine factor Xa): 0; experimental hit status, SETD2 (recombinant SETD2): 0; activity in the NSP3 enzyme assay (in words) ([1]; HTRF assay, up to 5 mM concentration): no activity; antiviral activity in the cellular assay (in words) (SARS-CoV-2): inactive in cells; X-ray screen result, binding site [2]: identified in the active site

Q: `Nc1nnc2ccccn12` [SX005] was tested. Which inhibition at 10 µM (human 5-HT1A receptor; [3]) did it give?
A: Its inhibition at 10 µM is 0%.

Q: And the “experimental hit status, 5-HT1” value (human 5-HT1A receptor)?
A: The value was 0.

Q: What about the inhibition at 10 µM (human 5-HT1A receptor; [4]) of the same molecule?
A: The inhibition at 10 µM was -14%.

Q: What about the inhibition at 10 µM (human 5-HT1A receptor; [5]) of the same molecule?
A: The inhibition at 10 µM was 0%.

Q: And the inhibition at 10 µM (human 5-HT1A receptor; [6])?
A: Its inhibition at 10 µM is 4%.

Q: And the inhibition at 10 µM (human 5-HT1A receptor; [7])?
A: The inhibition at 10 µM was -32%.

Q: And the inhibition at 10 µM (human 5-HT6 receptor; [8])?
A: Its inhibition at 10 µM is 40%.

Q: What about the “experimental hit status, 5-HT6” value (human 5-HT6 receptor) of the same molecule?
A: The value was 0.

Q: What about the inhibition at 10 µM (human 5-HT6 receptor; [9]) of the same molecule?
A: Its inhibition at 10 µM is 40%.

Q: And the inhibition at 10 µM (human 5-HT6 receptor; [10])?
A: The inhibition at 10 µM was 40%.

Q: And the inhibition at 10 µM (human 5-HT6 receptor; [11])?
A: Its inhibition at 10 µM is 45%.

Q: And the inhibition at 10 µM (human 5-HT6 receptor; [12])?
A: Its inhibition at 10 µM is 35%.

Q: What about the inhibition at 10 µM (human 5-HT7b receptor; [13]) of the same molecule?
A: Its inhibition at 10 µM is 0%.

Q: And the “experimental hit status, 5-HT7” value (human 5-HT7b receptor)?
A: Its value is 0.

Q: What about the inhibition at 10 µM (human 5-HT7b receptor; [14]) of the same molecule?
A: The inhibition at 10 µM was -0.039%.

Q: And the inhibition at 10 µM (human 5-HT7b receptor; [15])?
A: Its inhibition at 10 µM is 0%.

Q: And the inhibition at 10 µM (human 5-HT7b receptor; [16])?
A: The inhibition at 10 µM was -4.51%.

Q: What about the inhibition at 10 µM (human 5-HT7b receptor; [17]) of the same molecule?
A: The inhibition at 10 µM was 4.43%.

Q: And the “experimental hit status, Thrombin” value (human thrombin)?
A: Its value is 0.

Q: And the “experimental hit status, Factor Xa” value (bovine factor Xa)?
A: The value was 0.

Q: And the “experimental hit status, SETD2” value (recombinant SETD2)?
A: The value was 0.

Q: What about the “% SARS-CoV-2 macrodomain inhibition” value ([1]; 39.0625 µM, replicates) of the same molecule?
A: The value was 11.4%.

Q: What about the inhibition at 39.0625 µM ([1]; 39.0625 µM, replicates) of the same molecule?
A: Its inhibition at 39.0625 µM is 10.2%.

Q: And the “% SARS-CoV-2 macrodomain inhibition” value ([1]; 78.125 µM, replicates)?
A: The value was 23.5%.

Q: What about the inhibition at 78.125 µM ([1]; 78.125 µM, replicates) of the same molecule?
A: Its inhibition at 78.125 µM is 22.6%.

Q: What about the “% SARS-CoV-2 macrodomain inhibition” value ([1]; 156.25 µM, replicates) of the same molecule?
A: The value was 31.2%.

Q: What about the inhibition at 156.25 µM ([1]; 156.25 µM, replicates) of the same molecule?
A: Its inhibition at 156.25 µM is 27.9%.

Q: And the “% SARS-CoV-2 macrodomain inhibition” value ([1]; 312.5 µM, replicates)?
A: Its value is 41.8%.

Q: And the inhibition at 312.5 µM ([1]; 312.5 µM, replicates)?
A: Its inhibition at 312.5 µM is 41%.

Q: What about the “% SARS-CoV-2 macrodomain inhibition” value ([1]; 625 µM, replicates) of the same molecule?
A: The value was 55.4%.

Q: And the inhibition at 625 µM ([1]; 625 µM, replicates)?
A: Its inhibition at 625 µM is 54.1%.

Q: And the “% SARS-CoV-2 macrodomain inhibition” value ([1]; 1250 µM, replicates)?
A: The value was 64.7%.

Q: And the inhibition at 1250 µM ([1]; 1250 µM, replicates)?
A: The inhibition at 1250 µM was 65%.

Q: What about the “% SARS-CoV-2 macrodomain inhibition” value ([1]; 2500 µM, replicates) of the same molecule?
A: Its value is 70.5%.

Q: What about the inhibition at 2500 µM ([1]; 2500 µM, replicates) of the same molecule?
A: Its inhibition at 2500 µM is 72%.

Q: And the “% SARS-CoV-2 macrodomain inhibition” value ([1]; 5000 µM, replicates)?
A: Its value is 74.9%.

Q: What about the inhibition at 5000 µM ([1]; 5000 µM, replicates) of the same molecule?
A: Its inhibition at 5000 µM is 74.7%.

Q: And the IC50 ([1]; IC50, SARS-CoV-2 macrodomain inhibition)?
A: Its IC50 is 465 µM.

Q: And the inhibition at 1000 µM (SARS-CoV-2; Severe acute respiratory syndrome coronavirus 2, Vero C1008, read-out: Inhibition (%) of viral copy numbers, 1000 uM, replicates)?
A: The inhibition at 1000 µM was 83.7%.

Q: What about the “antiviral activity in the cellular assay (in words)” value (SARS-CoV-2) of the same molecule?
A: The value was “high micromolar range; also recorded: Significant antiviral activities”.

Q: And the “X-ray screen result, binding site” value [2]?
A: The value was “identified in the active site”.
